Results published in patent publication US20240016942A1, “STAT DEGRADERS AND USES THEREOF” (Kymera Therapeutics, Inc., priority 2020, published 2024).
Where two headings read alike, the source gives them in different places.

Target: T1, STAT3 (Homo sapiens, UniProt P40763)
T1 construct: expressed in transfected cells; host or cells: A549
Test: STAT3 HiBiT degradation assay (Nano-Glo HiBiT lytic detection) in transfected A549 cells
Assay type: cell-based
Description: Example 1. HiBiT Assay Protocol
Compound preparation and Cell seeding: The transfected A549 cells were harvested from dish into cell culture medium and cell numbers counted. Cells were diluted with culture medium to the desired density and 30 μL of cell suspension (about 2000 cells/well) were added into each well of a 384-well cell culture plate as designated and transferred into 37° C. 5% CO2 incubator for 24 h. Compounds were dissolved to 10 mM stock solution and 12 μL of the stock solution was transferred to a 384 LDV-plate. 3 fold, 10-point dilution was performed by transferring 4 μL compound into 8 μL DMSO using a TECAN (EVO200) liquid handler. 30 μl of diluted compound from compound source plate was transferred into the cell plate as designated by using Echo550 and transferred into 37° C. 5% CO2 incubator for 24 h.
Detection: Plates were removed from incubators and equilibrated at room temperature for 15 minutes. Nano-Glo Hibit Lytic Detection reagent (Promega Cat #N3040) was thawed and equilibrated to room temperature before the experiment. 30 μL of Nano-Glo Hibit Lytic Detection reagent was added into each well to be detected. The plates were held at room temperature for 10 min followed by reading on EnSpire.
Data analysis: The remaining activity was calculated following the formula: Remaining Activity (%)=100%×(Lumsample−LumNC)/(LumPC−LumNC). Calculate the IC50 by fitting the curve using Xlfit (v5.3.1.3), equation 201: fit=(A+((B−A)/(1+((x/C)^D)))); A: Botton; B: Top; C: IC50; and D: Slope.
The letter codes for STAT3 DC50 include: A (<0.01 μM), B (0.01-0.1 μM), C (0.1-1.0 μM), and D (>1.0 μM).

[1] = 24 h compound incubation, read-out: STAT3 HiBIT A549 degradation 24 h: Average external-Abs DC50

T1 sequence (P40763 whole entry): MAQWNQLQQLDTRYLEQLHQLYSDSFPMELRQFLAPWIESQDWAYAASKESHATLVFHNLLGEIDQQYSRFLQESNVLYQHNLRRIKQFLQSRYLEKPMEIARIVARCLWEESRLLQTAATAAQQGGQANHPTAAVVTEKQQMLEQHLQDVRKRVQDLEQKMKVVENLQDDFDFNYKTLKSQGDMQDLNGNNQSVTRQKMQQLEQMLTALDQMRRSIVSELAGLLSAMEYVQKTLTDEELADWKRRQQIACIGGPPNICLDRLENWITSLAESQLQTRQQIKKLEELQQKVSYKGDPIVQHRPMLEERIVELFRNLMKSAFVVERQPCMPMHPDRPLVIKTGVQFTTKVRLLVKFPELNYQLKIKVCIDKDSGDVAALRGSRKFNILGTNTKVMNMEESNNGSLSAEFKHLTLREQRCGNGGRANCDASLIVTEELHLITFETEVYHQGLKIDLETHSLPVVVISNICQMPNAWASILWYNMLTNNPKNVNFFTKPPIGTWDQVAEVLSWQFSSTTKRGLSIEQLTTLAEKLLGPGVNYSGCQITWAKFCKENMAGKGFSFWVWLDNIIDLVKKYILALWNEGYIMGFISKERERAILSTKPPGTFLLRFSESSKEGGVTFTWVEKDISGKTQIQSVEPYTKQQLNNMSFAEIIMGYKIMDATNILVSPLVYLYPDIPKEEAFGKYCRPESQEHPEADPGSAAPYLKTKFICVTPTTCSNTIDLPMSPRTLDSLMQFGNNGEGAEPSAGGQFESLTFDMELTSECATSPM

Compound	DC50 [1] [µM]	DC50 (read-out: STAT3 HiBIT A549 degradation 24 h: Average external-Abs DC50, 24 h compound incubation) [µM]
CC(=O)N1CC[C@H]2CC[C@@H](C(=O)N[C@@H](CCC(N)=O)COc3cc(F)cc(CCCC(=O)N[C@H](C(=O)N4C[C@H](O)C[C@H]4C(=O)N[C@@H](C)c4ccc(-c5scnc5C)cc4)C(C)(C)C)c3F)N2C(=O)[C@@H](NC(=O)c2cc3cc(C(=O)P(=O)(O)O)ccc3[nH]2)C1 [I-79]	< 0.01	
Cn1c(=O)n(C2CCC(=O)NC2=O)c2ccc(C[C@H]3CC[C@@H](CCN4CC[C@H]5CC[C@@H](C(=O)N[C@@H](CCC(N)=O)C(=O)NCc6ccc(S(C)(=O)=O)cc6)N5C(=O)[C@@H](NC(=O)c5cc6cc(C(=O)P(=O)(O)O)ccc6[nH]5)C4)CC3)cc21 (stereo partly drawn) [I-52, 2-[[(5S,8S,10aR)-8-[[(1S)-3-carbamoyl-1-[[(4-methanesulfonylphenyl)methyl]carbamoyl]propyl]carbamoyl]-6-oxo-3-[2-[(1s,4s)-4-[[1-(2,6-dioxopiperidin-3-yl)-3-methyl-2-oxo-1,3-benzodiazol-5-yl]methyl]cyclohexyl]ethyl]-octahydropyrrolo[1,2-a][1,5]diazocin-5-yl]carbamoyl]-1H-indole-5-carbonylphosphonic acid]	0.1 to 1	
CC(=O)N1CC[C@H]2CC[C@@H](C(=O)N[C@@H](CCC(N)=O)COc3cccc(CCCOc4cc([C@H](C(=O)N5C[C@H](O)C[C@H]5C(=O)NCc5ccc(-c6scnc6C)cc5)C(C)C)on4)c3Cl)N2C(=O)[C@@H](NC(=O)c2cc3cc(C(=O)P(=O)(O)O)ccc3[nH]2)C1 [I-69]	< 0.01	
Cn1c(=O)n(C2CCC(=O)NC2=O)c2ccc(C[C@H]3CC[C@@H](CC(=O)N4CC[C@H]5CC[C@@H](C(=O)N[C@@H](CCC(N)=O)COc6ccc(S(C)(=O)=O)cc6)N5C(=O)[C@@H](NC(=O)c5cc6cc(C(=O)P(=O)(O)O)ccc6[nH]5)C4)CC3)cc21 (stereo partly drawn) [I-67]	0.1 to 1	
Cn1c(=O)n(C2CCC(=O)NC2=O)c2ccc(CC[C@H]3CC[C@@H](C(=O)N4CC[C@H]5CC[C@@H](C(=O)N[C@@H](CCC(N)=O)C(=O)NCc6ccc(S(C)(=O)=O)cc6)N5C(=O)[C@@H](NC(=O)c5cc6cc(C(=O)P(=O)(O)O)ccc6[nH]5)C4)CC3)cc21 (stereo partly drawn) [I-68, 2-[[(5S,8S,10aR)-8-[[(1S)-3-carbamoyl-1-[[(4-methanesulfonylphenyl)methyl]carbamoyl]propyl]carbamoyl]-6-oxo-3-[(1r,4s)-4-[2-[1-(2,6-dioxopiperidin-3-yl)-3-methyl-2-oxo-1,3-benzodiazol-5-yl]ethyl]cyclohexanecarbonyl]-octahydropyrrolo[1,2-a][1,5]diazocin-5-yl]carbamoyl]-1H-indole-5-carbonylphosphonic acid]	0.01 to 0.1	
Cc1ncsc1-c1ccc([C@H](C)NC(=O)[C@@H]2C[C@@H](O)CN2C(=O)[C@@H](NC(=O)CCCc2cccc(OC[C@H](CCC(N)=O)NC(=O)[C@@H]3CC[C@@H]4CCCC[C@H](NC(=O)c5cc6cc(C(=O)P(=O)(O)O)ccc6[nH]5)C(=O)N43)c2F)C(C)(C)C)cc1 [I-9]	< 0.01	
CC(=O)N1CC[C@H]2CC[C@@H](C(=O)N[C@@H](CCC(N)=O)COc3cc(F)cc(CCCC(=O)N[C@H](C(=O)N4C[C@H](O)C[C@H]4C(=O)N[C@@H](C)c4ccc(-c5scnc5C)cc4)C(C)(C)C)c3Cl)N2C(=O)[C@@H](NC(=O)c2cc3cc(C(=O)P(=O)(O)O)ccc3[nH]2)C1 [I-77]	< 0.01	
Cn1c(=O)n(C2CCC(=O)NC2=O)c2ccc(NC[C@H]3CC[C@H](C(=O)N4CC[C@H]5CC[C@@H](C(=O)N[C@@H](CCC(N)=O)C(=O)NCc6ccc(S(C)(=O)=O)cc6)N5C(=O)[C@@H](NC(=O)c5cc6cc(C(=O)P(=O)(O)O)ccc6[nH]5)C4)CC3)cc21 (stereo partly drawn) [I-47]	0.01 to 0.1	
Cn1c(=O)n(C2CCC(=O)NC2=O)c2ccc(C[C@H]3CC[C@@H](CC(=O)N4CC[C@H]5CC[C@@H](C(=O)N[C@@H](CCC(N)=O)C(=O)NC6(c7ccc(S(C)(=O)=O)cc7)CC6)N5C(=O)[C@@H](NC(=O)c5cc6cc(C(=O)P(=O)(O)O)ccc6[nH]5)C4)CC3)cc21 (stereo partly drawn) [I-38]	0.1 to 1	
Cn1c(=O)n(C2CCC(=O)NC2=O)c2ccc(NC[C@H]3CC[C@@H](C(=O)N4CC[C@H]5CC[C@@H](C(=O)N[C@@H](CCC(N)=O)C(=O)NCc6ccc(S(C)(=O)=O)cc6)N5C(=O)[C@@H](NC(=O)c5cc6cc(C(=O)P(=O)(O)O)ccc6[nH]5)C4)CC3)cc21 (stereo partly drawn) [I-48]	0.01 to 0.1	
Cc1ncsc1-c1ccc([C@H](C)NC(=O)[C@@H]2C[C@@H](O)CN2C(=O)[C@@H](NC(=O)CCCc2cccc(OC[C@H](CCC(N)=O)NC(=O)[C@@H]3CCCN3C(=O)[C@@H](NC(=O)c3cc4cc(C(=O)P(=O)(O)O)ccc4[nH]3)C(C)(C)C)c2Cl)C(C)(C)C)cc1 [I-14]	0.1 to 1	
Cc1ncsc1-c1ccc([C@H](C)NC(=O)[C@@H]2C[C@@H](O)CN2C(=O)[C@@H](NC(=O)CCCc2cccc(OC[C@H](CCC(N)=O)NC(=O)[C@@H]3CCCN3C(=O)[C@H](C)NC(=O)c3cc4cc(C(=O)P(=O)(O)O)ccc4[nH]3)c2Cl)C(C)(C)C)cc1 [I-58]	0.01 to 0.1	
CNC(=O)N1CC[C@H]2CC[C@@H](C(=O)N[C@@H](CCC(N)=O)COc3cccc(CCCC(=O)N[C@H](C(=O)N4C[C@H](O)C[C@H]4C(=O)N[C@@H](C)c4ccc(-c5scnc5C)cc4)C(C)(C)C)c3Cl)N2C(=O)[C@@H](NC(=O)c2cc3cc(C(F)(F)P(=O)(O)O)ccc3s2)C1 [I-98]	> 1	
Cn1c(=O)n(C2CCC(=O)NC2=O)c2ccc(CCCCCCC(=O)N3CC[C@H]4CC[C@@H](C(=O)N[C@@H](CCC(N)=O)C(=O)NCc5ccc(S(C)(=O)=O)cc5)N4C(=O)[C@@H](NC(=O)c4cc5cc(C(=O)P(=O)(O)O)ccc5[nH]4)C3)cc21 (stereo partly drawn) [I-76]	0.01 to 0.1	
Cc1cc(CCCCCC(=O)N[C@H](C(=O)N2C[C@H](O)C[C@H]2C(=O)N[C@@H](C)c2ccc(-c3scnc3C)cc2)C(C)(C)C)c(F)c(OC[C@H](CCC(N)=O)NC(=O)[C@@H]2CC[C@@H]3CCCC[C@H](NC(=O)c4cc5cc(C(=O)P(=O)(O)O)ccc5[nH]4)C(=O)N32)c1 [I-4]	< 0.01	
Cn1c(=O)n(C2CCC(=O)NC2=O)c2ccc(CC[C@H]3CC[C@@H](C(=O)N4CC[C@H]5CC[C@@H](C(=O)N[C@@H](CCC(N)=O)c6nc7ccccc7s6)N5C(=O)[C@@H](NC(=O)c5cc6cc(C(=O)P(=O)(O)O)ccc6[nH]5)C4)CC3)cc21 (stereo partly drawn) [I-37]	0.01 to 0.1	
Cc1ncsc1-c1ccc([C@H](C)NC(=O)[C@@H]2C[C@@H](O)CN2C(=O)[C@@H](NC(=O)CCCCCc2cccc(OC[C@H](CCC(N)=O)NC(=O)[C@@H]3CC[C@@H]4CCN(C(=O)C[C@H]5CC[C@@H](Cc6ccc7c(c6)n(C)c(=O)n7C6CCC(=O)NC6=O)CC5)C[C@H](NC(=O)c5cc6cc(C(=O)P(=O)(O)O)ccc6[nH]5)C(=O)N43)c2F)C(C)(C)C)cc1 (stereo partly drawn) [I-36]	0.01 to 0.1	
Cc1ncsc1-c1ccc([C@H](C)NC(=O)[C@@H]2C[C@@H](O)CN2C(=O)[C@@H](NC(=O)CCCc2cccc(OC[C@H](CCC(N)=O)NC(=O)[C@@H]3CCCN3C(=O)[C@@H](NC(=O)c3cc4cc(C(=O)P(=O)(O)O)ccc4[nH]3)C3CCCCC3)c2Cl)C(C)(C)C)cc1 [I-12]	0.01 to 0.1	
Cc1ncsc1-c1ccc([C@H](C)NC(=O)[C@@H]2C[C@@H](O)CN2C(=O)[C@@H](NC(=O)CCCc2cc(F)cc(OC[C@H](CCC(N)=O)NC(=O)[C@@H]3CC[C@@H]4CCCC[C@H](NC(=O)c5cc6cc(C(=O)P(=O)(O)O)ccc6[nH]5)C(=O)N43)c2Cl)C(C)(C)C)cc1 [I-8]	< 0.01	
CN(C)C(=O)[C@@H]1Cc2cc(CCCCCCc3ccc4c(c3)n(C)c(=O)n4C3CCC(=O)NC3=O)cc3c2N1C(=O)[C@@H](NC(=O)c1cc2cc(C(=O)P(=O)(O)O)ccc2[nH]1)CC3 (stereo partly drawn) [I-25, 2-[[(2S, 11S)-2-(dimethylcarbamoyl)-6-[6-[1-(2,6-dioxopiperidin-3-yl)-3-methyl-2-oxo-1,3-benzodiazol-5-yl]hexyl]-12-oxo-1-azatricyclo [6.4.1.0^[4, 13]]trideca-4(13), 5,7-trien-11-yl]carbamoyl]-1H-indole-5-carbonylphosphonic acid]	> 1	
Cn1c(=O)n(C2CCC(=O)NC2=O)c2ccc(C[C@H]3CC[C@@H](CC(=O)N4CC[C@H]5CC[C@@H](C(=O)N[C@@H](CCC(N)=O)C(=O)NCc6ccc(S(C)(=O)=O)cc6F)N5C(=O)[C@@H](NC(=O)c5cc6cc(C(=O)P(=O)(O)O)ccc6[nH]5)C4)CC3)cc21 (stereo partly drawn) [I-44]	0.01 to 0.1	
Cc1ncsc1-c1ccc([C@H](C)NC(=O)[C@@H]2C[C@@H](O)CN2C(=O)[C@@H](NC(=O)CCCc2cccc(OC[C@H](CCC(N)=O)NC(=O)[C@@H]3CC[C@@H]4CCCC[C@H](NC(=O)c5cc6cc(C(=O)P(=O)(O)O)ccc6s5)C(=O)N43)c2Cl)C(C)(C)C)cc1 [I-88]		> 1
CC(=O)N1CC[C@H]2CC[C@@H](C(=O)N[C@H](CCC(N)=O)COc3cccc(CCCCC(=O)N[C@H](C(=O)N4C[C@H](O)C[C@H]4C(=O)N[C@@H](C)c4ccc(-c5scnc5C)cc4)C(C)(C)C)c3Cl)N2C(=O)[C@@H](NC(=O)c2cc3cc(C(=O)P(=O)(O)O)ccc3[nH]2)C1 [I-24]	0.1 to 1	
Cn1c(=O)n(C2CCC(=O)NC2=O)c2ccc(CC[C@H]3CC[C@@H](C(=O)N4CC[C@H]5CC[C@@H](C(=O)N[C@@H](CCC(N)=O)c6ccccn6)N5C(=O)[C@@H](NC(=O)c5cc6cc(C(=O)P(=O)(O)O)ccc6[nH]5)C4)CC3)cc21 (stereo partly drawn) [I-39]	0.01 to 0.1	
